# ChEMBL document CHEMBL3885881, “DrugMatrix”
# Species on record: Rattus norvegicus
# Test: DrugMatrix - Regimen: Daily Repeat
# Type: toxicity, organism-based, Sprague-Dawley
# Set-up: regimen Daily Repeat, gender Male, age 6-8 weeks
# Conditions: in vivo, po, route oral GAVAGE, vehicle .5 % CMC; for BASOPHIL / EOSINOPHIL / ERYTHROCYTE COUNT / HEMATOCRIT / HEMOGLOBIN / LEUKOCYTE COUNT / LYMPHOCYTE / MEAN CORPUSCULAR HEMOGLOBIN / MEAN CORPUSCULAR HEMOGLOBIN CONCENTRATION / MEAN CORPUSCULAR VOLUME / MONOCYTE / NEUTROPHIL / PLATELET COUNT: tissue Blood; for ALANINE AMINOTRANSFERASE / ALBUMIN / ALKALINE PHOSPHATASE / ASPARTATE AMINOTRANSFERASE / BLOOD UREA NITROGEN / CHLORIDE / CHOLESTEROL / CREATINE PHOSPHOKINASE / CREATININE / GLUCOSE / PHOSPHORUS / POTASSIUM / SODIUM / TOTAL BILIRUBIN / TOTAL PROTEIN: tissue Plasma
# [1] = 0 mg/kg, 72 h, dose level Control, time 3 day
# [2] = 0 mg/kg, 120 h, dose level Control, time 5 day
# [3] = 5 mg/kg, 72 h, dose level Low, time 3 day
# [4] = 5 mg/kg, 120 h, dose level Low, time 5 day
smiles,measurement,setting,value
CN1C(=O)CN=C(c2ccccc2)c2cc([N+](=O)[O-])ccc21 [NIMETAZEPAM],BASOPHIL,[1],1.52%
same,EOSINOPHIL,[1],0.98%
same,ERYTHROCYTE COUNT,[1],6.96 x10E6/uL
same,HEMATOCRIT,[1],44.65%
same,HEMOGLOBIN,[1],13.62 G/DL
same,LEUKOCYTE COUNT,[1],9.83 x10E3/uL
same,LYMPHOCYTE,[1],76.48%
same,MEAN CORPUSCULAR HEMOGLOBIN,[1],19.57 pg
same,MEAN CORPUSCULAR HEMOGLOBIN CONCENTRATION,[1],30.47 G/DL
same,MEAN CORPUSCULAR VOLUME,[1],64.22 fL
same,MONOCYTE,[1],2.13%
same,NEUTROPHIL,[1],18.6%
same,PLATELET COUNT,[1],1217.17 x10E3/uL
same,ALANINE AMINOTRANSFERASE,[1],41 u/L
same,ALBUMIN,[1],3.77 G/DL
same,ALKALINE PHOSPHATASE,[1],411.83 u/L
same,ASPARTATE AMINOTRANSFERASE,[1],62.83 u/L
same,BLOOD UREA NITROGEN,[1],15.17 mg/dL
same,CHLORIDE,[1],104.33 MEQ/L
same,CHOLESTEROL,[1],71.17 mg/dL
same,CREATINE PHOSPHOKINASE,[1],123.5 u/L
same,CREATININE,[1],0.55 mg/dL
same,GLUCOSE,[1],182.67 mg/dL
same,PHOSPHORUS,[1],11.23 mg/dL
same,POTASSIUM,[1],7.03 MEQ/L
same,SODIUM,[1],148 MEQ/L
same,TOTAL BILIRUBIN,[1],0.57 mg/dL
same,TOTAL PROTEIN,[1],6.85 G/DL
same,BASOPHIL,[2],1.35%
same,EOSINOPHIL,[2],0.43%
same,ERYTHROCYTE COUNT,[2],6.96 x10E6/uL
same,HEMATOCRIT,[2],44.35%
same,HEMOGLOBIN,[2],13.98 G/DL
same,LEUKOCYTE COUNT,[2],9.45 x10E3/uL
same,LYMPHOCYTE,[2],80.83%
same,MEAN CORPUSCULAR HEMOGLOBIN,[2],20.1 pg
same,MEAN CORPUSCULAR HEMOGLOBIN CONCENTRATION,[2],31.52 G/DL
same,MEAN CORPUSCULAR VOLUME,[2],63.72 fL
same,MONOCYTE,[2],2.37%
same,NEUTROPHIL,[2],14.05%
same,PLATELET COUNT,[2],1298 x10E3/uL
same,ALANINE AMINOTRANSFERASE,[2],42.17 u/L
same,ALBUMIN,[2],3.77 G/DL
same,ALKALINE PHOSPHATASE,[2],419 u/L
same,ASPARTATE AMINOTRANSFERASE,[2],66.67 u/L
same,BLOOD UREA NITROGEN,[2],16.67 mg/dL
same,CHLORIDE,[2],103.17 MEQ/L
same,CHOLESTEROL,[2],66.33 mg/dL
same,CREATINE PHOSPHOKINASE,[2],148.33 u/L
same,CREATININE,[2],0.58 mg/dL
same,GLUCOSE,[2],196.83 mg/dL
same,PHOSPHORUS,[2],11.8 mg/dL
same,POTASSIUM,[2],6.47 MEQ/L
same,SODIUM,[2],148.33 MEQ/L
same,TOTAL BILIRUBIN,[2],0.53 mg/dL
same,TOTAL PROTEIN,[2],6.77 G/DL
same,BASOPHIL,[3],2.83%
same,EOSINOPHIL,[3],0.3%
same,ERYTHROCYTE COUNT,[3],7.13 x10E6/uL
same,HEMATOCRIT,[3],44.5%
same,HEMOGLOBIN,[3],13.9 G/DL
same,LEUKOCYTE COUNT,[3],11.4 x10E3/uL
same,LYMPHOCYTE,[3],76.5%
same,MEAN CORPUSCULAR HEMOGLOBIN,[3],19.5 pg
same,MEAN CORPUSCULAR HEMOGLOBIN CONCENTRATION,[3],31.2 G/DL
same,MEAN CORPUSCULAR VOLUME,[3],62.43 fL
same,MONOCYTE,[3],2.87%
same,NEUTROPHIL,[3],16.73%
same,PLATELET COUNT,[3],1489.33 x10E3/uL
same,ALANINE AMINOTRANSFERASE,[3],36.67 u/L
same,ALBUMIN,[3],3.67 G/DL
same,ALKALINE PHOSPHATASE,[3],291 u/L
same,ASPARTATE AMINOTRANSFERASE,[3],57 u/L
same,BLOOD UREA NITROGEN,[3],11.67 mg/dL
same,CHLORIDE,[3],102.67 MEQ/L
same,CHOLESTEROL,[3],68.67 mg/dL
same,CREATINE PHOSPHOKINASE,[3],130.67 u/L
same,CREATININE,[3],0.5 mg/dL
same,GLUCOSE,[3],173 mg/dL
same,PHOSPHORUS,[3],11.97 mg/dL
same,POTASSIUM,[3],6.37 MEQ/L
same,SODIUM,[3],149.67 MEQ/L
same,TOTAL BILIRUBIN,[3],0.27 mg/dL
same,TOTAL PROTEIN,[3],6.6 G/DL
same,BASOPHIL,[4],0.95%
same,EOSINOPHIL,[4],2.55%
same,ERYTHROCYTE COUNT,[4],7 x10E6/uL
same,HEMATOCRIT,[4],43.15%
same,HEMOGLOBIN,[4],13.8 G/DL
same,LEUKOCYTE COUNT,[4],10.5 x10E3/uL
same,LYMPHOCYTE,[4],75.25%
same,MEAN CORPUSCULAR HEMOGLOBIN,[4],19.7 pg
same,MEAN CORPUSCULAR HEMOGLOBIN CONCENTRATION,[4],32 G/DL
same,MEAN CORPUSCULAR VOLUME,[4],61.5 fL
same,MONOCYTE,[4],2.15%
same,NEUTROPHIL,[4],18.45%
same,PLATELET COUNT,[4],1383 x10E3/uL
same,ALANINE AMINOTRANSFERASE,[4],34.67 u/L
same,ALBUMIN,[4],3.57 G/DL
same,ALKALINE PHOSPHATASE,[4],351 u/L
same,ASPARTATE AMINOTRANSFERASE,[4],62.67 u/L
same,BLOOD UREA NITROGEN,[4],11.67 mg/dL
same,CHLORIDE,[4],102.67 MEQ/L
same,CHOLESTEROL,[4],62.67 mg/dL
same,CREATINE PHOSPHOKINASE,[4],168.67 u/L
same,CREATININE,[4],0.6 mg/dL
same,GLUCOSE,[4],170.33 mg/dL
same,PHOSPHORUS,[4],13 mg/dL
same,POTASSIUM,[4],7.1 MEQ/L
same,SODIUM,[4],147 MEQ/L
same,TOTAL BILIRUBIN,[4],0.4 mg/dL
same,TOTAL PROTEIN,[4],6.37 G/DL
